Measured values as given in ChEMBL document CHEMBL1201862, “PubChem BioAssay data set” (2004).
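Briefly, cells in 96-well plates were exposed to five compound concentrations for 48 h, and endpoints were estimated by linear interpolation. GI50 = concentration required for 50% inhibition of growth.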 Activity calls are given as the source filed them. No stated cut-off is given here; in the data, active = GI50 up to about 1.1 µM and inactive = higher.

Assays:
Assay in all cases: NCI anticancer screen, dose series, 48 h
XF498 = system: XF498
M19-MEL = system: M19-MEL
KM-20L2 = system: KM-20L2
DLD-1 = system: DLD-1
HOP-18 = system: HOP-18
DMS-114 = system: DMS-114
SNB-78 = system: SNB-78
DMS-273 = system: DMS-273
RXF 631 = system: RXF 631

Row | Structure (SMILES) | GI50 (XF498) | GI50 (M19-MEL) | GI50 (KM-20L2) | GI50 (DLD-1) | GI50 (HOP-18) | GI50 (DMS-114) | GI50 (SNB-78) | GI50 (DMS-273) | GI50 (RXF 631)
1 | O=C1CC2C(=O)N(Cc3ccccc3)C1C=C2S(=O)(=O)c1ccccc1 (configuration not stated) | > 100 µM (inactive) | > 100 µM (inactive) | > 100 µM (inactive) | > 100 µM (inactive) | > 100 µM (inactive) | > 100 µM (inactive) | > 100 µM (inactive) |  | 
2 | COc1ccc(C2=C3c4cc(OC)c(OC)cc4CCN3C(=S)SS2)cc1OC |  | 53.2 µM (inactive) | 75.9 µM (inactive) | 33.7 µM (inactive) | > 100 µM (inactive) | 65.2 µM (inactive) | 80.4 µM (inactive) | 43.5 µM (inactive) | 
3 | CN(C)CCn1c2ccccc2c2nc3cc4ccccc4cc3nc21 | 7.66 µM (inactive) | 8.73 µM (inactive) | 3.3 µM (inactive) | 3.81 µM (inactive) |  | 6.47 µM (inactive) |  | 3.13 µM (inactive) | 
4 | Cc1c(CCl)c(=O)oc2c(C)c3occ(CCl)c(=O)c3cc12 |  | 16.2 µM (inactive) | > 100 µM (inactive) |  | 17.4 µM (inactive) | 20.2 µM (inactive) |  |  | 16 µM (inactive)
5 | O=C1CC23CC(=O)CC2(C1)c1ccccc1C3=O (configuration not stated) | > 100 µM (inactive) | > 100 µM (inactive) | > 100 µM (inactive) | > 100 µM (inactive) | > 100 µM (inactive) | > 100 µM (inactive) | > 100 µM (inactive) | > 100 µM (inactive) | 
6 | CCCCCCCCCCCC(=O)OCCOCCOCCOCCOCCOC(=O)CCCCCCCCCCC |  | > 100 µM (inactive) | > 100 µM (inactive) | > 100 µM (inactive) | > 100 µM (inactive) | > 100 µM (inactive) | > 100 µM (inactive) | > 100 µM (inactive) | > 100 µM (inactive)
7 | O=C(Nc1cc(C(F)(F)F)ccc1Cl)C(=O)C(C(=O)c1ccc2ccccc2c1)C1OC(=O)c2ccccc21 (configuration not stated) |  | 11.8 µM (inactive) | 20.4 µM (inactive) | 9.82 µM (inactive) |  | 11.4 µM (inactive) |  |  | 
8 | NNC(=S)N/N=C(/C(=O)Nc1cc(Cl)ccc1Cl)C1C(=O)Nc2ccccc2[S+]1[O-] (configuration not stated) | > 100 µM (inactive) | > 100 µM (inactive) | > 100 µM (inactive) | > 100 µM (inactive) | > 100 µM (inactive) | > 100 µM (inactive) | > 100 µM (inactive) |  | 
9 | O=C(NCCCN1CCN(CCCNC(=O)c2cccc3ccccc23)CC1)c1cccc2ccccc12 | 21.9 µM (inactive) | > 100 µM (inactive) | 34 µM (inactive) |  | > 100 µM (inactive) | 59.8 µM (inactive) | 41.3 µM (inactive) |  | 75.7 µM (inactive)
10 | C=C1C[C@]23CCC4C(C)(C)C(=O)CC[C@]4(C)C2C[C@H]1C(O)C3=O (some centres not stated) | > 75 µM (inactive) | > 75 µM (inactive) | > 75 µM (inactive) | > 75 µM (inactive) | > 75 µM (inactive) |  | > 75 µM (inactive) |  | > 75 µM (inactive)
11 | COc1cc2cc(c1Cl)N(C)C(=O)C[C@H](OC(=O)[C@H](C)N(C)C(C)=O)[C@]1(C)O[C@H]1[C@H](C)[C@@H]1C[C@@](O)(NC(=O)O1)[C@H](OC)/C=C/C=C(/C)C2 | 0.0628 µM (active) | 0.0628 µM (active) | 0.0308 µM (active) | 0.025 µM (active) | 0.695 µM (active) | 0.0323 µM (active) | 0.025 µM (active) | 0.01 µM (active) | 
12 | CC#Cc1c(C#CC)c(OC)c2c(c1OC)C(=O)c1ccccc1C2=O | > 100 µM (inactive) | > 100 µM (inactive) | > 100 µM (inactive) | 76 µM (inactive) |  | 20.7 µM (inactive) |  | 22.8 µM (inactive) | 
13 | CCc1cccc(CC)c1NC(=O)CC1SC(N)=NC1=O (configuration not stated) | > 100 µM (inactive) | > 100 µM (inactive) |  |  | > 100 µM (inactive) | > 100 µM (inactive) | > 100 µM (inactive) | > 100 µM (inactive) | > 100 µM (inactive)
14 | COC(=O)C(C(=O)C(=O)Nc1c(Cl)cc([N+](=O)[O-])cc1Cl)c1nc2cc(C)c(C)cc2nc1O (configuration not stated) |  | > 100 µM (inactive) | > 100 µM (inactive) | > 100 µM (inactive) | 72.6 µM (inactive) | 76.4 µM (inactive) | > 100 µM (inactive) | > 100 µM (inactive) | > 100 µM (inactive)
15 | C=C1CC(c2ccc(O)c(OC)c2)Oc2c(OC)cccc21 (configuration not stated) |  | 48 µM (inactive) | > 100 µM (inactive) | 37 µM (inactive) | > 100 µM (inactive) | 20.4 µM (inactive) | 33.2 µM (inactive) | 18.3 µM (inactive) | 
16 | CC1(C)CCc2cc3c(cc2O1)OCC1c2cc4c(cc2OC31)OCO4 (configuration not stated) | 52.1 µM (inactive) | 82.4 µM (inactive) | > 100 µM (inactive) | > 100 µM (inactive) | > 100 µM (inactive) | > 100 µM (inactive) |  |  | 55.3 µM (inactive)
17 | CN(C)c1c([O-])c(=[N+](C)C)c1=O | > 100 µM (inactive) |  |  |  |  |  | > 100 µM (inactive) | > 100 µM (inactive) | 
18 | CCOC(=O)Cc1csc(Nc2ccc(OCC)cc2)n1 | 38.7 µM (inactive) | > 100 µM (inactive) | > 100 µM (inactive) | > 100 µM (inactive) | > 100 µM (inactive) | 69.2 µM (inactive) | > 100 µM (inactive) |  | > 100 µM (inactive)
19 | N#CCc1nnc(N)o1 | > 100 µM (inactive) | > 100 µM (inactive) | > 100 µM (inactive) | > 100 µM (inactive) |  |  | > 100 µM (inactive) | > 100 µM (inactive) | > 100 µM (inactive)
20 | CNS(=O)(=O)NNS(=O)(=O)c1ccc(Cl)cc1 |  | > 100 µM (inactive) | > 100 µM (inactive) | > 100 µM (inactive) |  | > 100 µM (inactive) |  |  | > 100 µM (inactive)
21 | Cc1cccc(C)c1NC(=O)CCCC(=O)C1/C(=N/NC(=O)CC#N)CCC/C1=N\NC(=O)CC#N (configuration not stated) | > 100 µM (inactive) | > 100 µM (inactive) | > 100 µM (inactive) | > 100 µM (inactive) | > 100 µM (inactive) | > 100 µM (inactive) | > 100 µM (inactive) | > 100 µM (inactive) | > 100 µM (inactive)
22 | CCC1(OC(=O)CNC)C(=O)OCc2c1cc1n(c2=O)Cc2cc3ccccc3nc2-1 (configuration not stated) |  |  | 0.0336 µM (active) | 0.294 µM (active) | 0.0177 µM (active) |  | 0.263 µM (active) | < 0.01 µM (active) | < 0.01 µM (active)
23 | CCCCC/C=C1\CCC(CN(C)C)C1=O (configuration not stated) | 14.9 µM (inactive) | 10.4 µM (inactive) | 15.1 µM (inactive) | 3.73 µM (inactive) | 24 µM (inactive) | 13.5 µM (inactive) | 19.7 µM (inactive) | 13.6 µM (inactive) | 14.7 µM (inactive)
24 | Cc1cc2c3ccccc3n(C)c2c2c1C(=O)c1ccccc1C2=O | 15.9 µM (inactive) | 3.01 µM (inactive) |  | 14.6 µM (inactive) |  | 17.1 µM (inactive) |  | 19.4 µM (inactive) | 21.9 µM (inactive)
